What was measured:
[1] = system: calf pulmonary artery endothelial cell cultures (CPA-47); assay: Paraquat-induced injury of CPA-47 cells, LDH release; type: cell-based; conditions: varying concentrations; Paraquat 2 mM, 24 hours
Method: Calf pulmonary artery endothelial cell cultures (CPA-47) were grown to confluence in Ham's F-12K medium with 10% fetal bovine serum at pH 7.4 and 37° C. Cells were then trypsinized and seeded at equal densities in 24 well plates and grown to 90% confluence. Cells were washed and pre-incubated for 1 hour with varying concentrations of ZnTBAP in MEM or MEM only. Paraquat (2 mM) was added and allowed to incubate for 24 hours. Cell injury was quantitated by measuring the release of cellular lactate dehydrogenase (LDH) into the medium.

[2] = SOD activity (McCord and Fridovich); type: biochemical
Method: SOD activity can be monitored in the presence and absence of EDTA using the method of McCord and Fridovich (J. Biol. Chem. 244:6049 (1969)). The efficacy of a mimetic can be determined by measuring the effect of the mimetic on the growth of a SOD null E. coli strain versus a wild type strain. Specifically, wild type E. coli (AB1157) and SOD null E. coli. (JI132) can be grown in M9 medium containing 0.2% casamino acids and 0.2% glucose at pH 7.0 and 37° C.; growth can be monitored in terms of turbidity followed at 700 nm spectrophotometrically. Active mimetics can be tested for toxicity in mammalian cell culture by measuring lactate dehydrogenase (LDH) release. Specifically, rat L2 cells (a lung Type II like cell; (Kaighn and Douglas, J. Cell Biol. 59:106a (1973)) can be grown in Ham's F-12 medium with 10% fetal calf serum supplement at pH 7.4 and 37° C.; cells can be seeded at equal densities in 24 well culture dishes and grown to approximately 90% confluence; SOD mimetics can be added to the cells at log doses (eg micromolar doses in minimal essential medium (MEM)) and incubated for 24 hours. Toxicity can be assessed by morphology and by measuring the release of the cytosolic injury marker, LDH (eg on a thermokinetic plate reader), as described by Vassault (In: Methods of Enzymatic Analysis, Bergmeyer (ed) pp. 118-26 (1983); oxidation of NADH is measured at 340 nm). Efficacy of active mimetics can be assessed by determining their ability to protect mammalian cells against methylviologen (paraquat)-induced toxicity. Specifically, rat L2 cells grown as described above and seeded into 24 well dishes can be pre-incubated with various concentrations of the SOD mimetic and then incubated with a concentration of methylviologen previously shown to produce an LC75 in control L2 cells. Efficacy of the mimetic can be correlated with a decrease in the methylviologen-induced LDH release (St. Clair et al, FEBS Lett. 293:199 (1991)). The efficacy of SOD mimetics can be tested in vivo with mouse and/or rat models using both aerosol administration and parenteral injection. For example, male Balb/c mice can be randomized into 4 groups of 8 mice each to form a standard 2×2 contingency statistical model. Animals can be treated with either paraquat (40 mg/kg, ip) or saline and treated with SOD mimetic or vehicle control. Lung injury can be assessed 48 hours after paraquat treatment by analysis of bronchoalveolar lavage fluid (BALF) damage parameters (LDH, protein and % PMN) as previously described (Hampson et al, Tox. Appl. Pharm. 98:206 (1989); Day et al, J. Pharm. Methods 24:1 (1990)). […]
^2SOD activity determined as described by McCord and Fridovich, J. Biol. Chem. […] (1969).

[3] = system: Calf pulmonary endothelial cell (CPA-47) line; assay: Glucose oxidase hydrogen peroxide injury of CPA-47, Cr^51 release; type: cell-based; conditions: glucose oxidase 100 Mu/ml, 4 hours; 1 hour pretreatment
Method: (§1) Calf pulmonary endothelial cell (CPA-47) line was grown to near confluence in 12-well plates with F-12K medium containing 10% fetal calf serum. CPA-47 cells were loaded with Cr^51 as previously described by Simon et al J. Clin. Invest. 78:1375 (1986) in high glucose minimum essential medium (DMEM). Cells were pretreated with MnTBAP (100 μM) for 1 hour and then exposed to various concentrations of hydrogen peroxide generator, glucose oxidase, for 4 hours. Cell injury was then quantitated as the specific Cr^51 release from CPA-47 cells which has been adjusted for spontaneous Cr51 release.
as §1, with “(J.” for “J.”, “(1986))” for “(1986)”, “various concentrations of either: (A) MnTBAP; (B) MnTMPyP; (C) ZnTBAP; or (D) CuZnSOD” for “MnTBAP (100 μM)”, “the” for “various concentrations of”, “oxidase (100 Mu/ml),” for “oxidase,”, “Cr^51” for “Cr51”

[4] = biological target: T1, EC-SOD (Mus musculus, UniProt O09164); assay: Brain EC-SOD activity after diethyldithiocarbamate; type: in vivo; conditions: transgenic and nontransgenic mice, sacrificed one hour later
T1 construct: The brains were removed and assayed for EC-SOD and CuZn SOD activity as described above; from tissue; host or cells: mouse brain; EC-SOD separated from the homogenate on concanavalin A sepharose
T1 sequence (O09164 25-251): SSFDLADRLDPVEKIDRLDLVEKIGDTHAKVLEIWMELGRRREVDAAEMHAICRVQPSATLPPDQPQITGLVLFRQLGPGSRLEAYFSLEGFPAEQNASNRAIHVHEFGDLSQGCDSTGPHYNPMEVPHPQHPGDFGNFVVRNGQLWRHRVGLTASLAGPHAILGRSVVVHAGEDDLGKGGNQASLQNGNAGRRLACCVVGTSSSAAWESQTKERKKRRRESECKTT
Method: (§2) Separation of SOD isoenzymes by concanavalin A sepharose chromatography: Tissues taken from 3 mice were weighed, then combined and homogenized in 10 volumes of ice-cold 50 mM potassium phosphate, pH 7.4, with 0.3 M. KBr, 3 mM diethylenetriaminepentaacetic acid, and 0.5 mM phenylmethylsulfonyl fluoride. Separation of EC-SOD from CuZn SOD and Mn SOD was accomplished by passing tissue homogenates over a concanavalin A sepharose column as described (Marklund et al, Clin. Chim. Acta 126:4 (1982)). SOD activity: EC-SOD activity and total SOD activity (CuZn SOD and Mn SOD) remaining after EC-SOD extraction were measured by inhibition of cytochrome C reduction at pH 10, as previously described (Crapo et al, Methods Enzymol. 53:382 (1978)). Total protein was determined by the BCA protein assay (Pierce, Rockford, Ill.). The SOD activities were then expressed as units/mg total protein. To determine the extent of EC-SOD and CuZn SOD inhibition by diethyldithiocarbamate, mice were given diethyldithiocarbamate and sacrificed one hour later. The brains were removed and assayed for EC-SOD and CuZn SOD activity as described above.

[5] = biological target: T2, CuZn SOD (Mus musculus, UniProt P08228); assay: Brain CuZn SOD activity after diethyldithiocarbamate; type: in vivo; conditions: transgenic and nontransgenic mice, sacrificed one hour later
T2 construct: from tissue; host or cells: mouse brain; homogenate fraction left after removal of EC-SOD on concanavalin A sepharose
Method: as §2

[6] = CNS oxygen toxicity, 6 ATA hyperbaric oxygen exposure; type: in vivo, mice; conditions: 6 ATA oxygen 25 minutes, DDC 400 mg/kg i.p. or LNNA 20 mg/kg i.p.
Method: Oxygen exposures: 7-8 week old mice were exposed to hyperbaric oxygen five at a time in a small-animal chamber (Bethlehem, Pa.). After flushing the chamber with pure oxygen, compression to 50 meters (6 ATA) was performed within 5 minutes. The oxygen concentration in the chamber was monitored continuously with a Servomex oxygen analyzer (model 572, Sybron, Norwood, Mass.) and maintained at ≳99%. The carbon dioxide concentration was analyzed from intermittent samples of chamber gas with an IR detector (IR Industries, Santa Barbara, Calif.) and was not allowed to rise above 0.1%. The chamber temperature was maintained at 25-26° C., but the compression of oxygen in the chamber raised the temperature to 30-32° C. transiently, but an environmental control system restored the normal chamber temperature within 3 minutes. […] The mice were observed continuously for signs of oxygen toxicity from the beginning of the exposure until 4 hours after removal from the chamber. The time to the first generalized convulsion (seizure latency) and the time to death were recorded. These exposure conditions are designed to cause CNS oxygen toxicity without appreciable evidence of pulmonary oxygen toxicity.
Treatment with diethyldithiocarbamate: One hour prior to exposure to 6 ATA oxygen, mice were given either i.p. injections of either 0.008 cc/g saline or 400 mg/kg diethyldithiocarbamate dissolves in normal saline (0.008 cc/g). The mice were then exposed to 6 ATA oxygen for 25 minutes as described above.
Treatment with β-mercaptoethanol: One hour prior to exposure to 6 ATA oxygen, mice were given either i.p. injections of 0.008 cc/g saline or 180 mg/kg β-mercaptoethanol (0.008 cc/g). This dose of β-mercaptoethanol was selected because it contains an equal number of reducing thiols as the dose of diethyldithiocarbamate. The mice were then exposed to 6 ATA oxygen for 30 minutes as described above.
Treatment with N-ω-nitro-L-arginine, an inhibitor of nitric oxide synthase: Ten minutes prior to beginning compression, 0.008 cc/g saline or 20 mg/kg (0.008 cc/g) N-ω-nitro-L-arginine dissolved in sterile water was given i.p to the transgenic and nontransgenic mice. Mice were then exposed at 6 ATA oxygen for 25 or 75 minutes as described above.

T2 sequence (P08228 whole entry): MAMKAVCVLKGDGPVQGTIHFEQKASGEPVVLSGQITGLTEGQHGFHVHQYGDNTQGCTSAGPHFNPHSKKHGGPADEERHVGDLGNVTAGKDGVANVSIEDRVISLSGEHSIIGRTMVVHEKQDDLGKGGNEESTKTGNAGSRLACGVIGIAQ

SMILES	paraquat-induced LDH release / injury [1]	SOD activity, fold less than MnTBAP [2]	hydrogen peroxide-induced endothelial cell injury [3]	inhibition at 400 mg/kg [4]	inhibition at 400 mg/kg [5]	Survival ([6]; nontransgenic mice)	Survival ([6]; transgenic mice)
O=C(O)c1ccc(-c2c3nc(c(-c4ccc(C(=O)O)cc4)c4ccc([n-]4)c(-c4ccc(C(=O)O)cc4)c4nc(c(-c5ccc(C(=O)O)cc5)c5ccc2[n-]5)C=C4)C=C3)cc1.[Zn+2] [ZnTBAP, reference compound]	does not protect against paraquat-induced injury	10 fold	does not reduce				
CCN(CC)C(=S)S [diethyldithiocarbamate]				80%	60%	93%	100%

From patent publication US6583132B1, “Oxidant scavengers” (Duke University, priority 1993, dated 2003)
